Activity calls are given as the source filed them.
Legend:
[1] = target: T1, High affinity choline transporter 1 (Homo sapiens, UniProt Q9GZV3); assay: CHT inhibitors, dose response, cell-based, 10-point CRC, membrane potential dye (AID 588401); assay type: functional;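 further: membrane potential dye fluorescence of choline-evoked depolarization via CHT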
T1 sequence (Q9GZV3 whole entry): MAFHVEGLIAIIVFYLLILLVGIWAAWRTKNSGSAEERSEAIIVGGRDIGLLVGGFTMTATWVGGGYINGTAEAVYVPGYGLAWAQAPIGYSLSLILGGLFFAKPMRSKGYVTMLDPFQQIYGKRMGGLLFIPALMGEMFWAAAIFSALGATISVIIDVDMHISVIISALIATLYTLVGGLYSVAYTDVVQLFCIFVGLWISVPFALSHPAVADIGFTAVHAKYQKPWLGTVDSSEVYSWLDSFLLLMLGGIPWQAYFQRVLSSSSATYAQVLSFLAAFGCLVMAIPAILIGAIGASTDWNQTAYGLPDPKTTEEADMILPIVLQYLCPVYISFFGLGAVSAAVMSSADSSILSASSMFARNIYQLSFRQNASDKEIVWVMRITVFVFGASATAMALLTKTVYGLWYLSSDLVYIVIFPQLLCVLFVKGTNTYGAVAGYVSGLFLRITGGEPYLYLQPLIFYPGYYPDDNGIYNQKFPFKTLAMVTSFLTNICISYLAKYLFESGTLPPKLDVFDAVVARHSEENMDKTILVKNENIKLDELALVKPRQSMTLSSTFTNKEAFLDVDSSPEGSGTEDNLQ

[2] = target: T1, High affinity choline transporter 1; assay: CHT inhibitors, dose response, cell-based, 5-point CRC, membrane potential dye (AID 504840); assay type: functional
[3] = growth suppression of beta-catenin-knockout colon cells, dose response, cell-based, HCT116, human colon tumor (AID 1045); assay type: functional;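 further: HCT116 colon tumor cells with beta catenin knocked out; cells exposed to compound for 60 hours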
[4] = growth suppression of PTEN-null colon cells, dose response, cell-based, HCT116 PTEN knockout (AID 1047); assay type: functional;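 further: HCT116 colon tumor cells with PTEN knocked out; cells exposed to compound for 60 hours before readout; potency for loss of cell viability measured by luminescence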
Vero = assay: cells; assay type: functional; details: Chlorocebus sabaeus
[5] = target: Voltage-dependent T-type calcium channel subunit alpha-1H (Homo sapiens, UniProt O95180); assay type: functional;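 further: channel activity triggered by adding a high calcium stimulation buffer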
Chain of Voltage-dependent T-type calcium channel subunit alpha-1H (O95180 whole entry): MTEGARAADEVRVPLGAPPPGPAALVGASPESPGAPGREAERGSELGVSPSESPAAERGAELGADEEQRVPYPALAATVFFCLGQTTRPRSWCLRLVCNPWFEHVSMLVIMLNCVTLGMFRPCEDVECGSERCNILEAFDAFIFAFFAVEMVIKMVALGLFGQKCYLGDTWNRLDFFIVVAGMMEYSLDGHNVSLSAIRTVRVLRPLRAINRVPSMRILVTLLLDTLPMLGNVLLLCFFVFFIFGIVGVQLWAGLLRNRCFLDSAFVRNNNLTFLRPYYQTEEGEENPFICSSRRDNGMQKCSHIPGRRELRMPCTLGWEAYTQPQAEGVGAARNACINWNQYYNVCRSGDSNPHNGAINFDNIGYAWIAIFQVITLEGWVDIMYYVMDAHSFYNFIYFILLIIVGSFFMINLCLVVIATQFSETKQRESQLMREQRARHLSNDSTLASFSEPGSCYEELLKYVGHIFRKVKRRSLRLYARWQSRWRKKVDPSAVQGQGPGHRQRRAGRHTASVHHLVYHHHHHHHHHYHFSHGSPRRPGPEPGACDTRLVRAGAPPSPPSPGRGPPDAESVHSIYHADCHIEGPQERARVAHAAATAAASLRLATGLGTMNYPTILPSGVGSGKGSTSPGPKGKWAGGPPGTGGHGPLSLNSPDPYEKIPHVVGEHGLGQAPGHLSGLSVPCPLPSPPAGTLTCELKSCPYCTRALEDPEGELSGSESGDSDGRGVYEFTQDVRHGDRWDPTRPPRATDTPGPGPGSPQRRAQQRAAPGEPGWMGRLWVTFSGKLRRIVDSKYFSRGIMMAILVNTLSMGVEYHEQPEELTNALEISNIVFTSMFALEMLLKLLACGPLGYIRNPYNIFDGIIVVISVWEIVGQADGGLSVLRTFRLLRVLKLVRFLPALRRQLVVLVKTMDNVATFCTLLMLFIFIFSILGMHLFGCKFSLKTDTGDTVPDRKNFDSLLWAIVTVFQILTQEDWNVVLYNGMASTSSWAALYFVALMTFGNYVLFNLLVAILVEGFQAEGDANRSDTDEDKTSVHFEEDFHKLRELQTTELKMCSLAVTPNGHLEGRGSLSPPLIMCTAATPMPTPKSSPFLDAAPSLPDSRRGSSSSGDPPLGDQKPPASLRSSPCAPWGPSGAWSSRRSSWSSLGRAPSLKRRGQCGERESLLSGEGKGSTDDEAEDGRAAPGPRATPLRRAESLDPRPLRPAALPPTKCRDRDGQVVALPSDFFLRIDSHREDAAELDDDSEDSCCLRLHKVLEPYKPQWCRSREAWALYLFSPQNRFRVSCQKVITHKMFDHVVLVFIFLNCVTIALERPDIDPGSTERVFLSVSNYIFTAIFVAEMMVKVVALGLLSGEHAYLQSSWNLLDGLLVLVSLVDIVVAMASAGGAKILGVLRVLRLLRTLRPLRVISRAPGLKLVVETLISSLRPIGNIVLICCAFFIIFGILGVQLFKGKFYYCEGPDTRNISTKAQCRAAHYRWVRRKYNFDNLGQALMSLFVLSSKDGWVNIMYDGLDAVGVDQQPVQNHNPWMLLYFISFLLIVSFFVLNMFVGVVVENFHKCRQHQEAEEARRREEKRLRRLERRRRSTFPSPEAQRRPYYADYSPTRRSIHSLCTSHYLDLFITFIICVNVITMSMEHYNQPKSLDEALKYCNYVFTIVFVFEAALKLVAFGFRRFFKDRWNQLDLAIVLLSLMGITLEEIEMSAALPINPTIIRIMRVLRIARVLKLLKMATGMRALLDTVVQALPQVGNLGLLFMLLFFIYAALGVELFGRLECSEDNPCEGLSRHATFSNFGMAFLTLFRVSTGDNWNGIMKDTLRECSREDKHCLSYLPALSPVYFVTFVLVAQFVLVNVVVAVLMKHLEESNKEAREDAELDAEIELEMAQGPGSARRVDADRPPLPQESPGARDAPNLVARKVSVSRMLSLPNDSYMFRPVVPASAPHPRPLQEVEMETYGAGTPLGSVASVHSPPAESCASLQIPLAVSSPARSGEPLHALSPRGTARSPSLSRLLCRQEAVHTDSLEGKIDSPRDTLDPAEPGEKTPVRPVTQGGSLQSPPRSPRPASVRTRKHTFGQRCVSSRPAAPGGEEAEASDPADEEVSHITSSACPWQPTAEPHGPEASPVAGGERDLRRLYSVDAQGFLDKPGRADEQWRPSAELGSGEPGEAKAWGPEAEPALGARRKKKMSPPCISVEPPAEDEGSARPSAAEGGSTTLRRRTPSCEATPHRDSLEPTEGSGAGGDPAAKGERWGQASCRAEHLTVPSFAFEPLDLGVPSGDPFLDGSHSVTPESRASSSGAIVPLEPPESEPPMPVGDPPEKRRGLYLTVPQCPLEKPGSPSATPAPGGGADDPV

H9c2 = assay: cells; assay type: functional, cell-based; details: Rattus norvegicus, H9c2, Myocardium;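 further: confirmatory concentration-response retest of ultra-high-throughput screening hits for modulation of myocardial damage; cell death induced by hydrogen peroxide oxidative stress; compound pretreatment for 60 min then peroxide exposure for 2 h; potency is for protecting the cells against peroxide damage rather than for killing them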
Cytochrome P450 2C9 = Cytochrome P450 2C9 (Homo sapiens, UniProt P11712)
Chain of Cytochrome P450 2C9 (P11712 whole entry): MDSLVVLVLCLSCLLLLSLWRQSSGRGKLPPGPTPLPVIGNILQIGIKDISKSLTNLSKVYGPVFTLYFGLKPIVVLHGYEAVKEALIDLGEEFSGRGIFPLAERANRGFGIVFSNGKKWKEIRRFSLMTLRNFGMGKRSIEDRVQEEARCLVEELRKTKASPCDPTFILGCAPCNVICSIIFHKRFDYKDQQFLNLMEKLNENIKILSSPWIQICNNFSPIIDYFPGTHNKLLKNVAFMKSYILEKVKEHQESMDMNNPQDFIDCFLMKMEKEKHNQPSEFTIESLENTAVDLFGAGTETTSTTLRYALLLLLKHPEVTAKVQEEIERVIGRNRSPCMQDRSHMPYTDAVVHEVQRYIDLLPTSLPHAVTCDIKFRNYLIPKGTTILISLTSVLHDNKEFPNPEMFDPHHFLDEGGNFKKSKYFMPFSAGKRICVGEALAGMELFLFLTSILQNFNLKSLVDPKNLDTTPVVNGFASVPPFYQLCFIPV

[6] = target: T2, Short transient receptor potential channel 4 (Mus musculus, UniProt Q9QUQ5); assay: mouse TRPC4 channel activators, dose response, cell-based, HEK293 TRPC4/mu-opioid, Fluo-4 calcium (AID 434937); assay type: functional
T2 sequence (Q9QUQ5 whole entry): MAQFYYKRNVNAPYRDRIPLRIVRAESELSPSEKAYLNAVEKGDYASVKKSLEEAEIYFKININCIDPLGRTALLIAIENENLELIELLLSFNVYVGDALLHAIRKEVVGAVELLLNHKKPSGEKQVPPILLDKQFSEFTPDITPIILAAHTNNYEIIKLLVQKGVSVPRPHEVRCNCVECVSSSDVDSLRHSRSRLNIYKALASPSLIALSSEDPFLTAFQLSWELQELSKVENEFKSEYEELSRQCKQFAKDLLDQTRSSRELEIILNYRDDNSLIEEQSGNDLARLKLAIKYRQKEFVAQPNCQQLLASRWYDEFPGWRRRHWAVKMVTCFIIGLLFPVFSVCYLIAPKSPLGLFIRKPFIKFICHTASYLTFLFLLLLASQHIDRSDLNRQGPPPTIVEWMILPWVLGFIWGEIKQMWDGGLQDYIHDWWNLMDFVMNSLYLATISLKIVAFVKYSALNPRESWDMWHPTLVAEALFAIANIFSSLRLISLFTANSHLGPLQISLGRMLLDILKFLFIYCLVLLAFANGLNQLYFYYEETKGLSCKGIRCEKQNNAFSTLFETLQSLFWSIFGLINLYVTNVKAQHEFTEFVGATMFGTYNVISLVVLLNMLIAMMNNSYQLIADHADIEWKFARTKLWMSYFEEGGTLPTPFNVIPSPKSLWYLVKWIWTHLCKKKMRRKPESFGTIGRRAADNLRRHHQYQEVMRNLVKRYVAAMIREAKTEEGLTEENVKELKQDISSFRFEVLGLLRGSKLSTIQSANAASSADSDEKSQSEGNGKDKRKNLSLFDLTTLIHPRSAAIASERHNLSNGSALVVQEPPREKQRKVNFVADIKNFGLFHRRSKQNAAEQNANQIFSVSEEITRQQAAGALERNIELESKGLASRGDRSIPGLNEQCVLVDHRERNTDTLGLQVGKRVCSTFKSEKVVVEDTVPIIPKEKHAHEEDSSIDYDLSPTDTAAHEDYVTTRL

[7] = target: T3, Calpain-2 catalytic subunit (Sus scrofa, UniProt P43367); assay: pig calpain II inhibitor potency, dose response, biochemical, fluorogenic peptide substrate (AID 1420); assay type: functional
T3 sequence (P43367 whole entry): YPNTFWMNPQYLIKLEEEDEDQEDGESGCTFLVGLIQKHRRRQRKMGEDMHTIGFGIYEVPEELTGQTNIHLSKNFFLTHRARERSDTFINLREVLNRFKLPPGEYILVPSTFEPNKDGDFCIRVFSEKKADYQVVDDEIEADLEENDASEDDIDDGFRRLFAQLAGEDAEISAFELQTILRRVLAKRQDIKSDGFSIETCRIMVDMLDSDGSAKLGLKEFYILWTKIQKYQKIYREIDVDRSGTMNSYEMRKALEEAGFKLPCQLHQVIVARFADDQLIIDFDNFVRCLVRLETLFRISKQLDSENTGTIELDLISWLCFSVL

[8] = inhibitors of intracellular T. cruzi replication, confirmation, NIH3T3 host cells, beta-gal luminescence (AID 2044); assay type: functional, cell-based;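 further: intracellular parasites grown in NIH/3T3 mouse fibroblasts as host cells; luminescent beta-galactosidase reporter signal from transgenic T. cruzi replicating inside host cells; inhibitors lower the luminescence signal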
[9] = cytotoxicity toward NIH3T3 fibroblasts, dose response, counter-screen, cell-based, ATP luminescence, mouse fibroblasts (AID 2010); assay type: functional;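 further: cells exposed to compound for about 90 hours before reading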
[10] = inhibitors of firefly luciferase expression or activity, dose response, H4 neuroglioma cells, luminescence (AID 1990); assay type: functional, cell-based
Cytochrome P450 2D6 = Cytochrome P450 2D6 (Homo sapiens, UniProt P10635);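 further: CYP2D6 member of a cytochrome P450 panel assay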
Chain of Cytochrome P450 2D6 (P10635 whole entry): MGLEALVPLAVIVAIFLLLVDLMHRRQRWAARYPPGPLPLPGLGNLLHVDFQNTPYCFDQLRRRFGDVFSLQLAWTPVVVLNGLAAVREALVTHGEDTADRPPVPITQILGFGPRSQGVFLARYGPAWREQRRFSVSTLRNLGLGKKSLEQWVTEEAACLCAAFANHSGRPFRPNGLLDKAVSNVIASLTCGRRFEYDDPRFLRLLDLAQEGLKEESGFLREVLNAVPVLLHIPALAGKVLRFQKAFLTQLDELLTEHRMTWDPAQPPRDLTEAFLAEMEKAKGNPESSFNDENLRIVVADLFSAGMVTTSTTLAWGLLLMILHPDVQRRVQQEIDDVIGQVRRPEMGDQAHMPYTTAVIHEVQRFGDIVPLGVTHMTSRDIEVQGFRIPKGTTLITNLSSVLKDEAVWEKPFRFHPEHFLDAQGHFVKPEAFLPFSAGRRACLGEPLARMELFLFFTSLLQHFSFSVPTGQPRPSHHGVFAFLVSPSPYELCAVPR

[11] = inhibitors of SNCA 5'UTR-driven reporter translation, confirmation, H4 neuroglioma cells, luminescence (AID 1988); assay type: functional, cell-based
Cytochrome P450 1A2 = target: T4, Cytochrome P450 1A2 (Homo sapiens, UniProt P05177);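 further: PubChem cytochrome P450 panel assay, CYP1A2 panel member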
T4 sequence (P05177 whole entry): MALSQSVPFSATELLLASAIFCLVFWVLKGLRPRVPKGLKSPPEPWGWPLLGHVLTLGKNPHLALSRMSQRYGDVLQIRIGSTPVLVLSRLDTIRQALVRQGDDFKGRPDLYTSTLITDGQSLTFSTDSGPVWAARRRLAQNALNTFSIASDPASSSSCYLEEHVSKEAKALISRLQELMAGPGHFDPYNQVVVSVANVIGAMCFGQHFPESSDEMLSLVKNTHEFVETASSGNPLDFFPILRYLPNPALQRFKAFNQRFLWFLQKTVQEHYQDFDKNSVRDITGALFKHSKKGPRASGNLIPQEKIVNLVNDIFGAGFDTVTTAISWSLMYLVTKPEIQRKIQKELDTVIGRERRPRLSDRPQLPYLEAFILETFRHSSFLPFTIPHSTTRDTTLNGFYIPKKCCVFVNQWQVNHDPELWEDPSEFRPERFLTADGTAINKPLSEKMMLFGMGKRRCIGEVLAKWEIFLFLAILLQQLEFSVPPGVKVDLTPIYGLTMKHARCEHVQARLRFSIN

[12] = Luminescence Cell-Based Dose Response HTS to Identify Inhibitors of 5'UTR Stem-Loop Driven Prion Protein mRNA Translation in H4 Neuroglioblastoma Cells. [Related pubchem assays: 1827 (Project Summary), 1813 (Primary HTS)]; assay type: functional
[13] = target: Luciferin 4-monooxygenase (Photinus pyralis, UniProt P08659); assay: firefly luciferase enzyme inhibitors, dose response, biochemical, luminescence (AID 1891)
Chain of Luciferin 4-monooxygenase (P08659 whole entry): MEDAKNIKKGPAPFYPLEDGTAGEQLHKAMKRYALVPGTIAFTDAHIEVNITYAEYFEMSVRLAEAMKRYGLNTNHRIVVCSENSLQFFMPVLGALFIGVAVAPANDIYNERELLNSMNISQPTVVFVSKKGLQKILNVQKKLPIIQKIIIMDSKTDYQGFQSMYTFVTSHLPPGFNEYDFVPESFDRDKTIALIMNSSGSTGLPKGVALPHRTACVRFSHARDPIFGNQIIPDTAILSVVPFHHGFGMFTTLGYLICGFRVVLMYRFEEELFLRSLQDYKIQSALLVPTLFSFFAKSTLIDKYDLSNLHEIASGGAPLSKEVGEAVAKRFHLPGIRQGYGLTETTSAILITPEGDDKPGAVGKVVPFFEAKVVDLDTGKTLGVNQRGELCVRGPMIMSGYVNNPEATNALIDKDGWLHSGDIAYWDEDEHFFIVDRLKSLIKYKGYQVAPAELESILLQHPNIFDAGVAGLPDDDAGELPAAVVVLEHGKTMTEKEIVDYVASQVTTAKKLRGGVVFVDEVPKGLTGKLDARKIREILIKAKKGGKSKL

[14] = Luminescence Cell-Based Dose Confirmation HTS to Identify Inhibitors of Platelet Dense Granule Release. [Related pubchem assays: 1663 (Primary HTS), 1678 (Summary of Project)]; assay type: functional
[15] = HEp-2 cell cytotoxicity, dose response, cytotoxicity control for RSV inhibitor project, HTS (AID 2410); assay type: functional; details: human respiratory syncytial virus
[16] = microbe, parasite or virus in culture; assay type: functional; details: Mycobacterium tuberculosis
[17] = Luminescence Cell-Based Dose Response HTS to Identify Activators of Luciferase Translation or Activity in H4 […] Cells. [Related pubchem assays: 1829 (Project Summary), 1814 (Primary HTS)]; assay type: functional
H4 = assay: Luminescence Cell-Based Dose Response HTS to Identify Activators of 5'UTR Stem-Loop Driven Prion Protein mRNA Translation in H4 Neuroglioblastoma Cells. [Related pubchem assays: 1829 (Project Summary), 1814 (Primary HTS)]; assay type: functional; details: Homo sapiens
Cytochrome P450 3A4 = Cytochrome P450 3A4 (Homo sapiens, UniProt P08684);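 further: CYP3A4 tested as one member of a cytochrome P450 panel screen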
Chain of Cytochrome P450 3A4 (P08684 whole entry): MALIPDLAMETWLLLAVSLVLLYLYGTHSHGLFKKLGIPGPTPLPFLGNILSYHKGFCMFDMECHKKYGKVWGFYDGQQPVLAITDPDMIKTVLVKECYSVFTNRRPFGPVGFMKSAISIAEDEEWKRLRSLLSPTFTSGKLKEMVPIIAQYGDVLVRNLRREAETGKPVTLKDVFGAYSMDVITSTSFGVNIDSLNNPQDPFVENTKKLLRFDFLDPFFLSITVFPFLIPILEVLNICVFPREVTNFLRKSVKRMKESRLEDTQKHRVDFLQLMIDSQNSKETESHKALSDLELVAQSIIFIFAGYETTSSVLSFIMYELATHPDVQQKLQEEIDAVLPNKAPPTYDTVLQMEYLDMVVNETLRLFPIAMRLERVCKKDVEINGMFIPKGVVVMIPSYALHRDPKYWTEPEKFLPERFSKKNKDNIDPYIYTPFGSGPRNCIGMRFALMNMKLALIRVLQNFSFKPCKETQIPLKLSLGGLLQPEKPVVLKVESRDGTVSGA

Cc1nccn1CC1CCc2c(c3ccccc3n2C)C1=O (stereo not drawn)
IC50 [1]: 1.35 µM (active) | IC50 [2]: 1.67 µM (active)

CCCc1n[nH]c2c1C(C1CC=CCC1)C(C#N)=C(N)O2 (stereo not drawn)
EC50 [3]: 139 µM (active) | EC50 [4]: 33.2 µM (active) | CC50 (Vero): > 25 µM (active)

O=C(Nc1ccccc1C(=O)NCCCn1ccnc1)c1ccccc1
IC50 [1]: 1.5 µM (active) | IC50 [2]: 5.59 µM (active)

Cc1ccccc1NS(=O)(=O)c1cc(C(=O)Nc2ccccc2-c2ccccc2)ccc1Cl
EC50 [5]: 3.95 µM (active)

Cc1ccc(SCCC(=O)NCCSCc2ccccc2C)cc1
EC50 [5]: 2.87 µM (active)

COc1ccccc1CN(Cc1nc(O)c2ccccc2n1)S(=O)(=O)c1ccc2ccccc2c1
IC50 (H9c2): 20.5 µM (active) | EC50 [3]: 17.4 µM (active) | EC50 [4]: 16.7 µM (active) | CC50 (Vero): > 25 µM (active)

Cn1c(=O)c(C#N)c(-c2ccc(F)cc2)c2cc(C(=O)c3cc(Cl)cc(Cl)c3O)cnc21
IC50 [1]: 7.08 µM (active) | IC50 [2]: 6.95 µM (active)

CN(C)c1nc(-c2ccccc2C(F)(F)F)nc2ccccc12
AC50 (Cytochrome P450 2C9): inconclusive

COc1cc(OC)cc(C(=O)NC(=S)NNC(=O)[C@H]2C[C@@H]2c2ccccc2)c1
EC50 [6]: 2.99 µM (active) | CC50 (Vero): 23.8 µM (active)

Cc1cccc(OCCCSc2nc3ccc(C)cc3[nH]2)c1
IC50 [7]: 24.9 µM (not active) | EC50 [5]: 3.92 µM (active)

CC(C)(C)n1nnnc1C(c1cccs1)N(Cc1ccc(Cl)cc1)CC1CCCO1 (stereo not drawn)
EC50 [8]: 2.41 µM (active) | EC50 [9]: > 60 µM (not active) | EC50 [5]: 8.19 µM (active)

Cc1sc[n+](CC(=O)c2ccc(Br)cc2)c1C
IC50 [1]: 3.76 µM (active) | IC50 [2]: 8.46 µM (active)

CCNC(=O)c1ccc(-n2nc(C(F)(F)F)c3c2CCCC3)cc1
EC50 [10]: 18.1 µM (active) | AC50 (Cytochrome P450 2D6): 8.91 µM (inconclusive) | EC50 [11]: > 120 µM (not active) | AC50 (Cytochrome P450 1A2): 25.1 µM (inconclusive) | AC50 (Cytochrome P450 2C9): inconclusive | EC50 [12]: 41.9 µM (active)

Cc1nn2c(NCCOCCO)c3c(nc2c1-c1ccccc1)CCCC3
IC50 [1]: 11.2 µM (active) | IC50 [2]: 3.43 µM (active)

COc1cc(OC)cc(C(=O)NCCCN2CCN(CCCNC(=O)c3cc(OC)cc(OC)c3)CC2)c1
EC50 [13]: > 112 µM (not active) | EC50 [14]: > 112 µM (not active) | EC50 [6]: 0.188 µM (active)

CCc1nnc(NS(=O)(=O)c2ccc(NC(=O)c3ccc(Br)cc3)cc2)s1
IC50 [1]: 10 µM (active) | IC50 [2]: 4.45 µM (active)

COC(=O)Cn1c(CN2CCN(c3ccc(F)cc3)CC2)nc2c1c(=O)n(C)c(=O)n2C
IC50 [1]: 1.15 µM (active) | IC50 [2]: 3.59 µM (active)

CCN(CC)S(=O)(=O)c1ccc2oc(C(=O)NCc3ccc(F)cc3)c(C)c2c1
EC50 [5]: 3.18 µM (active)

COc1cc(Br)cc2cc(C(=O)NCC3CCCO3)c(=O)oc12 (stereo not drawn)
AC50 (Cytochrome P450 1A2): 3.55 µM (inconclusive) | AC50 (Cytochrome P450 2C9): inconclusive

Cc1ccc(N2CCN(C(=O)CCc3nc4ccccc4[nH]3)CC2)c(C)c1
CC50 [15]: 13.6 µM (active) | EC50 [5]: 3.27 µM (active)

COc1cccc(NC(=O)C2CCN(Cc3cnn(-c4ccccc4)c3-n3cccc3)CC2)c1
CC50 [16]: 14.6 µM (active) | EC50 [5]: 2.29 µM (active)

CN1C(=C2C(=O)OC(C)(C)OC2=O)Sc2ccccc21
EC50 [17]: 0.122 µM (active) | EC50 (H4): > 120 µM (not active) | AC50 (Cytochrome P450 2C9): inconclusive

N=C(NC(=O)c1ccccc1)N1CCN(C(c2ccccc2)c2ccccc2)CC1
CC50 (Vero): > 25 µM (active)

Nc1ccc2c3c(cccc13)C(=O)NC2=O
AC50 (Cytochrome P450 3A4): 3.16 µM (inconclusive) | AC50 (Cytochrome P450 2C9): inconclusive

— ChEMBL document CHEMBL1201862, “PubChem BioAssay data set” (2004)
